Test results from PMC4452637, “Identification of positron emission tomography (PET) tracer candidates by prediction of the target-bound fraction in the brain” (EJNMMI Research, 2014).

Assays:
5HT1b = biological target: 5HT1b; design: method as in ref 10 (Additional file 1); conditions: literature value; ref 10 (Additional file 1); cited from earlier work
GABA = conditions: non-functioning tracer: corresponds to arbitrarily assigned low ftb 0.09, not from PET data; blank in Table S1
Sigma [1] = biological target: Sigma; design: method as in ref 77 (Additional file 1); conditions: literature value; ref 77 (Additional file 1); cited from earlier work
[2] = Unbound fraction in brain homogenate (fu,brain); Vu,brain calculated from it with pH-partition model; conditions: calculated from reported fu,brain and tracer pKa with pH-partition model (tracers with fu,brain tabulated, footnote h of Table S1)
Experimental: The unbound volume of distribution in the brain (Vu,brain) describing the extent of non-specific partitioning was determined for 31 tracers using a previously described high-throughput brain slice method [11].

[3] = design: method as in ref 10 (a number printed in a supplementary file, which may have a reference list of its own: not looked up in the article's list); conditions: unbound fraction in homogenized brain tissue, reported; cited from earlier work
Sigma [4] = assay: PET imaging of specific target binding (BPND, tracer functionality); assay type: in vivo; conditions: non-functioning tracer: corresponds to arbitrarily assigned low ftb 0.09, not from PET data; blank in Table S1
D1 = biological target: D1; design: method as in ref 52, 53 (Additional file 1); conditions: literature value; 53 (Additional file 1); cited from earlier work
D2/D3 = biological target: D2/D3; design: method as in ref 59 (Additional file 1); conditions: literature value; ref 59 (Additional file 1); cited from earlier work
nAChr a4b2 = biological target: nAChr a4b2; design: method as in ref 2 (Additional file 1); conditions: literature value; ref 2 (Additional file 1); cited from earlier work
5HT2a = biological target: 5HT2a; design: method as in ref 7 (Additional file 1); conditions: literature value; ref 7 (Additional file 1); cited from earlier work
5HT1a = biological target: 5HT1a; design: method as in ref 50 (Additional file 1); conditions: literature value; ref 50 (Additional file 1); cited from earlier work

For `Cc1ccc(N2CCN(C)CC2)c2oc(C(=O)Nc3ccc(N4CCOCC4)cc3)cc(=O)c12` [[^11C]AZ10419369], the Kd (5HT1b) is listed as 370 pM.
In the case of `[11CH3]N1C(=O)CN=C(c2ccccc2)c2cc(Cl)ccc21` [[^11C]Diazepam], the “BP ND” value (GABA) is reported as 0.1.
In the case of `CCCN(CCC)CCc1ccc(OC)c(OCCc2ccccc2)c1` [[^11C]NE100], the Kd (Sigma [1]) is given as 1200 pM.
For `CCCN(CCC)CCc1ccc(O[11CH3])c(OCCc2ccccc2)c1` [[^11C]NE100], the “V u,brain” value [2] is given as 96 mL/g brain, the “fu,brain” value [3] is given as 0.03 and the “BP ND” value (Sigma [4]) is given as 0.1.
In the case of `CN1CCc2cc(Cl)c(O)cc2[C@@H](c2cccc3ccoc23)C1` [[^11C]NNC112], the Kd (D1) is listed as 180 pM.
In the case of `CCCN1CCO[C@@H]2c3cc(O)ccc3CCC21` (some centres unmarked) [[^11C]PHNO], the Kd (D2/D3) is given as 560 pM.
For `Fc1ncccc1OC[C@@H]1CCN1` [[^18 F]2-FA-85380], the Kd (nAChr a4b2) is given as 145 pM.
For `O=C(c1ccc(F)cc1)C1CCN(CCn2c(=S)[nH]c3ccccc3c2=O)CC1` [[^18 F]Altanserin], the Kd (5HT2a) is listed as 320 pM.
For `COc1ccccc1N1CCN(CCN(C(=O)c2ccc(F)cc2)c2ccccn2)CC1` [[^18 F]MPPF], the Kd (5HT1a) is listed as 3300 pM.
